Assays:
Format in all cases: cell-based
Conditions in all cases: 37° C.
[1] = test system: E. coli strain TG1 (pYDDG1); assay: Growth on M9 glucose minimal agar plates containing inhibitor, strain TG1 (pYDDG1)
Procedure: (§1) The pYDDG1 and pYDDG2 plasmids and the pUC19 and pAYCTER3 vectors were introduced into E. coli strain TG1. Thus the strains TG1 (pYDDG1), TG1 (pYDDG2), TG1 (pUC19) and TG1 (pAYCTER3) were obtained.
(§2) Then the ability of these strains to grow in the presence of amino acids and amino acid analogues for each strain were determined on M9 glucose minimal agar plates containing graded concentrations of inhibitor. The plates were spotted with 10^6 to 10^7 cells from an overnight culture grown in a minimal medium (supplemented with 100 μg/ml of ampicillin for plasmid strains). The growth was estimated after 44 h incubation at 37° C.

[2] = test system: E. coli strain TG1 (pYDDG2); assay: Growth on M9 glucose minimal agar plates containing inhibitor, strain TG1 (pYDDG2)
Procedure: as §1, §2

[3] = test system: E. coli strain TG1 (pUC19); assay: Growth on M9 glucose minimal agar plates containing inhibitor, strain TG1 (pUC19)
Procedure: as §1, §2
Further: key: +: good growth; ±: pour growth; −: no growth.

NC(Cc1ccc(F)cc1)C(=O)O (racemic) [p-fluoro-DL-phenylalanine]
Growth after 44 h TG1 (pYDDG1) ([1]; substrate 1.0 mg/ml): + | Growth after 44 h TG1 (pYDDG1) ([1]; substrate 2.0 mg/ml): + | Growth after 44 h TG1 (pYDDG2) ([2]; substrate 1.0 mg/ml): + | Growth after 44 h TG1 (pYDDG2) ([2]; substrate 2.0 mg/ml): − | Growth after 44 h TG1 (pUC19) ([3]; substrate 1.0 mg/ml): − | Growth after 44 h TG1 (pUC19) ([3]; substrate 2.0 mg/ml): −

NC(Cc1c[nH]c2ccc(F)cc12)C(=O)O (racemic) [5-fluoro-DL-tryptophane]
Growth after 44 h TG1 (pYDDG1) ([1]; substrate 0.0005 mg/ml): + | Growth after 44 h TG1 (pUC19) ([3]; substrate 0.0005 mg/ml): −

N[C@@H](Cc1ccccc1)C(=O)O [L-phenylalanine]
Growth after 44 h TG1 (pYDDG1) ([1]; substrate 20.0 mg/ml): + | Growth after 44 h TG1 (pYDDG2) ([2]; substrate 20.0 mg/ml): ± | Growth after 44 h TG1 (pUC19) ([3]; substrate 20.0 mg/ml): −

— patent US7935506B2, “Method for producing a lower alkyl ester of α-L-aspartyl-L-phenylalanine” (priority 2001, dated 2011)
